Consider one compound from US6592867B2, “Antimicrobial composition containing an oxidoreductase and an enhancer of the N-hydroxyanilide-type” (Novozymes A/S, priority 1998, dated 2003).

For assay [1], the system named is Pseudomonas aeruginosa (ATCC 10145). Briefly: Bactericidal activity of laccase plus enhancing agent, surviving cells enumerated by Malthus (Examples 2 and 3). The format is cell-based. How it is done: (§1) The antimicrobial activity was determined against Pseudomonas fluorescens (Gram et al. 1990, International Journal of Food Microbiology 10: 303-316) and Staphylococcus epidermidis (DSM 20042). Cells were grown in Tryptone Soya Broth (Oxoid CM129) at 30° C. (S. epidermidis) or 25° C. (P. fluorescens) for 24 h and diluted in the MES-buffer to a final cell concentration of approximately 10^6 cfu/ml. The cell suspensions were mixed with rCiP (3 POXU/ml), enhancing agent (0.2 mM) and hydrogen peroxide (0.5 mM) for 20 min at 40° C. The bactericidal activity was determined by incubation in Malthus. Detection times measured by the Malthus instrument were converted to cfu/ml by a calibration curve. Either direct or Indirect Malthus measurements were used when enumerating total survival cells (Malthus Flexi M2060, Malthus Instrument Limited). By the direct measurements, the cell metabolism was determined by conductance measurements in the growth substrate. By the indirect measurements, 3 ml of growth medium was transferred to the outer chamber of the indirect Malthus cells, and 0.5 ml of sterile KOH (0.1 M) was transferred to the inner chamber. The cell suspensions were after enzyme treatment transferred to the outer chamber of the Malthus cell. As cells are growing in the outer chamber they produce CO2 which will dissolve in the KOH in the inner chamber and thereby change the conductance of the KOH. The amount of CO2 formed by the respiring cells surviving the enzyme treatment was used for estimating the number of viable cells. When the conductance change is measurable by the Malthus, a detection time (dt) will be recorded. The dt's were converted to colony counts by use of a calibration curve relating cfu/ml to dt (Johansen et al. 1995. Journal of Applied Bacteriology 78:297-303, Johansen et al. 1997, Applied and Environmental Microbiology 63:3724-3728). Antibacterial activity of Polyporus pinsitus laccase (rPpL), obtained as described in WO 96/00290), and Coprinus cinereus laccase (rCcL), obtained as described in WO 97/08325, was determined with N-hydroxyacetanilide as enhancing agent against Pseudomonas aeruginosa (ATCC 10145), Enterobacter aerogenes (ATCC 13048) and Enterococcus faecalis (DSM 2570). The bactericidal activity was determined as described in Example 1, the antimicrobial activity of rPpL (1 mg/L) was evaluated at pH 6, whereas rCcL (1 mg/L) was evaluated at pH 8. Antibacterial activity of Coprinus cinereus peroxidase (rCiP), Polyporus pinsitus laccase (rPpL), Coprinus cinereus laccase (rCcL) and Rhizoctonia solani laccase (rRsL) (as described in WO 95/07988) was determined with different enhancing agents at pH 6 and 8 (buffers; see Example 1). The rCiP was combined with 0.5 mM hydrogen peroxide. Antimicrobial activity of rCiP and rPpL was determined against Pseudomonas fluorescens (Gram et al. 1990, International Journal of Food Microbiology 10:303-316), whereas antimicrobial activity of rCcL and rRsL was determined against Pseudomonas aeruginosa (ATCC 10145). The bactericidal activity was determined as described in example 1. The results are shown as the reduction in living cell number. Thus, a reduction of 4 correspond to a 4 log reduction of living cells e.g. from 10^6 CFU/ml to 10^2 CFU/ml.

Assay [2] deals with Pseudomonas fluorescens. Briefly: Bactericidal activity of phenol oxidizing enzyme plus enhancing agent, surviving cells enumerated by Malthus (Examples 1 and 3). Particulars: for Bactericidal activity: 20 min, 40° C.; for Cell reduction: enhancing agent 0.2 mM, hydrogen peroxide 0.5 mM, rCiP 3 POXU/ml, total kill. It is filed as cell-based. How it is done:
as §1, with “Antimicrobial activity was evaluated in 0.05 M MES-buffer (Sigma M8250) (pH 6) or 0.05 HEPES-buffer (Sigma H3375) (pH 8); buffers were sterilised by filter sterilisation. The antimicrobial” for “The antimicrobial”, “activity of Coprinus cinereus” for “activity of Polyporus pinsitus laccase (rPpL), obtained as described in WO 96/00290), and Coprinus cinereus laccase (rCcL), obtained as described in WO 97/08325, was determined with N-hydroxyacetanilide as enhancing agent against Pseudomonas aeruginosa (ATCC 10145), Enterobacter aerogenes (ATCC 13048) and Enterococcus faecalis (DSM 2570). The bactericidal activity was determined as described in Example 1, the antimicrobial activity of rPpL (1 mg/L) was evaluated at pH 6, whereas rCcL (1 mg/L) was evaluated at pH 8. Antibacterial activity of Coprinus cinereus”

On to `CC(=O)N(O)c1ccccc1` [N-hydroxyacetanilide], for which, in assay [1] (combined with laccase (rPpL or rCcL, 1 mg/L), 20 min, 40° C.), the “Enhancing agent concentration at which bactericidal activity was obtained” value is reported as “above 200 μM”. In addition, the “Bactericidal activity (dose-response)” value in assay [1] (rCcL 1 mg/L, pH 8, 20 min, 40° C.) was “significant bactericidal activity”; in assay [1] (rPpL 1 mg/L, pH 6, 20 min, 40° C.), “significant bactericidal activity”. Besides, the “Bactericidal activity at high concentration of enhancing agent” value in assay [1] (rPpL 1 mg/L, pH 6, high concentration of N-hydroxyacetanilide) was “total kill”. Also, the Bactericidal activity result is “total kill” in assay [2] (combined system: enhancing agent 0.2 mM, hydrogen peroxide 0.5 mM and rCiP 3 POXU/ml); “No bactericidal activity” in assay [2] (enhancing agent (0.2 mM) combined with hydrogen peroxide (0.5 mM), no enzyme); “No bactericidal activity” in assay [2] (enhancing agent alone (0.2 mM), no enzyme, no hydrogen peroxide). In addition, the Cell reduction entry in assay [2] (pH 6) and in assay [2] (pH 8) was “approximately 10^6 CFU/ml” throughout.
